Measurements published in patent publication US20240368109A1, “ALLOSTERIC MODULATORS OF NICOTINIC ACETYLCHOLINE RECEPTORS” (MERCK SHARP & DOHME LLC, priority 2021, published 2024).

Molecular target: human α7 nAChR (Homo sapiens (Human), UniProt P36544)
Experiment: Automated patch-clamp electrophysiology functional assay (Assay A)
Assay type: cell-based
Conditions: IonFlux HT whole-cell population patch, HEK cells expressing human α7/RIC-3, 40 μM acetylcholine
Method: The α7 nAChR positive allosteric modulator (PAM) activity of the present compounds may be tested using assays known in the art. The α7 nAChR PAMs described herein have activities in an automated patch-clamp electrophysiology functional assay as described in the examples. The assay was performed using the IonFlux HT in a whole-cell, population patch configuration. See Golden et al. Assay Drug Dev. Technol. (2011) 9:608-619. The compounds were assessed for their ability to modulate the function of the human α7 nAChR stably expressed in a HEK cell line both in the presence, and in the absence of the natural α7 agonist acetylcholine. By performing a series of such measurements at different concentrations, the effective concentration of the α7 nAChR PAMs (EC50) was determined. See Spencer et al. Assay Drug Dev. Technol. (2012) 10:313-324.
Direct activation of α7 (agonism), and potentiation of acetylcholine-evoked α7 currents was determined as follows:
Automated Patch-Clamp Electrophysiology Functional Assay (Assay A)
Automated patch-clamp electrophysiology was performed using the IonFluxHT (Fluxion Biosciences Inc., San Francisco, CA) in the whole-cell, population patch configuration. Test compounds were assessed for their ability to modulate the function of the α7 nicotinic acetylcholine receptor both in the presence, and in the absence of the natural α7 agonist acetylcholine. A HEK cell line stably expressing both human RIC-3 and human α7 (PrecisION hnAChR α7/RIC-3, Eurofins Pharma, St. Charles, MO) was cultured in 175 cm^2 triple-layer tissue culture flasks to no more than 90% confluency in DMEM/F-12 growth media supplemented with 10% heat-inactivated fetal bovine serum, 1% non-essential amino acids, 0.625 μg/mL Puromycin, and 400 μg/mL Geneticin. Immediately prior to assay, cells were detached by first aspirating growth media, rinsing with Dulbecco's phosphate buffered saline, and then adding 10 mL of Accutase (Innovative Cell Technologies, San Diego, CA) to the flask and then incubating at 37° C. for 5 minutes. Detached cells were then recovered by the addition of 40 mL of CHO-serum-free media supplemented with 25 mM HEPES, and rocked gently in a 50 mL conical tube for 20 minutes prior to patch-clamp assay. After recovery, cells were pelleted by centrifugation at 1,000 RPM for 1 minute in a compact bench top centrifuge; recovery media was aspirated and cells were resuspended in external recording solution (150 mM NaCl, 5 mM KCl, 2 mM CaCl2), 1 mM MgCl2, 10 mM HEPES, 12 mM dextrose) to a density of 5.0×10^6 cells/mL. The cell suspension was added to the cell inlet wells on an IonFlux HT population patch plate which had previously been rinsed and primed with deionized H2O. Test compounds were serially diluted in DMSO and then resuspended to the final test concentration in external recording solution, with, or without 40 μM acetylcholine added to the external recording solution; test compounds were then transferred to the IonFlux HT population patch plate. Internal recording solution (110 mM TrisPO4, 28 mM TrisBase, 0.1 mM CaCl2), 2 mM MgCl2, 11 mM EGTA, 4 mM MgATP) was added to the internal recording solution inlet wells on the IonFlux HT patch plate previously loaded with cells and test compounds, and the plate loaded into the IonFlux HT instrument. A protocol was executed on the IonFlux HT to trap the cells, break into the cells, and establish the whole-cell recording configuration; cells were voltage-clamped at a holding potential of −60 mV for the duration of the experiment, all experiments were conducted at room temperature, and the IonFlux HT injection pressure was 8 psi for solution applications. Upon establishing the whole-cell configuration, external recording solution was perfused into the recording chambers for 120 seconds and then 40 μM acetylcholine was applied for 1 second and immediately washed off with external recording solution for 60 seconds. […]

Sequence of human α7 nAChR (P36544 23-502): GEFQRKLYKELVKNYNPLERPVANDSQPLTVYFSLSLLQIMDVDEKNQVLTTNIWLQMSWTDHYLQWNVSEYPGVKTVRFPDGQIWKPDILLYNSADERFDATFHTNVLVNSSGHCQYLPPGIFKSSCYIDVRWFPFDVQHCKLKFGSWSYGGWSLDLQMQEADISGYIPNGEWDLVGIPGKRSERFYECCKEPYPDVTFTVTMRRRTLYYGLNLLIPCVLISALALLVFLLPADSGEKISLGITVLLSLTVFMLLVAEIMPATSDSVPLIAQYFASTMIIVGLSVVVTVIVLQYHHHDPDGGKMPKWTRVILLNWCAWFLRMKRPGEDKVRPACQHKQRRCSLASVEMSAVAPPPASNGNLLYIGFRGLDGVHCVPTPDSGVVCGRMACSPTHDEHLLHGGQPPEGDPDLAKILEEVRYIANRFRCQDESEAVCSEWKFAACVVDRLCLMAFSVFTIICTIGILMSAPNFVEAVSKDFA

SMILES	EC50 (electrophysiology EC50 values) [nM]	EC50 (potency class) [nM]
CCOc1ccc([C@H](COC)NC(=O)C2C3Oc4ccc(-c5c(C)noc5C)cc4C32)cc1 (stereo partly drawn) [Example B10, exo-5-(3,5-dimethyl-1,2-oxazol-4-yl)-N-[(1R)-1-(4-ethoxyphenyl)-2-methoxyethyl]-1a,6b-dihydro-1H-cyclopropa[b][1]benzofuran-1-carboxamide]	2800	500 to 5000
CCOc1ccc([C@H](COC)NC(=O)C2C3Oc4ccc(-c5cncnc5)cc4C32)cc1 (stereo partly drawn) [Example B11, exo-N-[(1R)-1-(4-ethoxyphenyl)-2-methoxyethyl]-5-(pyrimidin-5-yl)-1a,6b-dihydro-1H-cyclopropa[b][1]benzofuran-1-carboxamide]		5000 to 50000
CCOc1ccc([C@H](COC)NC(=O)C2C3c4ccccc4N(C(C)=O)C23)cc1 (stereo partly drawn) [Example B12, exo-2-acetyl-N-[(1R)-1-(4-ethoxyphenyl)-2-methoxyethyl]-1,1a,2,6b-tetrahydrocyclopropa[b]indole-1-carboxamide]	1300	500 to 5000
CCOc1ccc([C@H](COC)NC(=O)[C@@H]2[C@H]3Oc4ccnc(OC)c4[C@H]32)cc1 [Example B13, exo-N-[(1R)-1-(4-ethoxyphenyl)-2-methoxyethyl]-6-methoxy-1a,6b-dihydro-1H-cyclopropa[4,5]furo[3,2-c]pyridine-1-carboxamide]	1100	500 to 5000
CCOc1ccc([C@H](COC)NC(=O)C2C3Oc4ccc(C#N)cc4C32)cc1 (stereo partly drawn) [Example B14, exo-5-cyano-N-[(1R)-1-(4-ethoxyphenyl)-2-methoxyethyl]-1a,6b-dihydro-1H-cyclopropa[b][1]benzofuran-1-carboxamide]		500 to 5000
CCOc1ccc([C@H](COC)NC(=O)C2C3Oc4cc(Br)ccc4C32)cc1 (stereo partly drawn) [Example B15, exo-4-bromo-N-[(1R)-1-(4-ethoxyphenyl)-2-methoxyethyl]-1a,6b-dihydro-1H-cyclopropa[b][1]benzofuran-1-carboxamide]	480	100 to 500
CCOc1ccc([C@H](COC)NC(=O)C2C3Oc4ccc(C#N)cc4C32)cc1 (stereo partly drawn) [Example B16, exo-5-cyano-N-[(1R)-1-(4-ethoxyphenyl)-2-methoxyethyl]-1a,6b-dihydro-1H-cyclopropa[b][1]benzofuran-1-carboxamide]	4100	
CCOc1ccc([C@H](COC)NC(=O)C2C3Oc4cc(OC)ccc4C32)cc1 (stereo partly drawn) [Example B17, exo-N-[(1R)-1-(4-ethoxyphenyl)-2-methoxyethyl]-4-methoxy-1a,6b-dihydro-1H-cyclopropa[b][1]benzofuran-1-carboxamide]	630	500 to 5000
CCOc1ccc([C@H](COC)NC(=O)C2C3Oc4cccc(Br)c4C32)cc1 (stereo partly drawn) [Example B18, exo-6-bromo-N-[(1R)-1-(4-ethoxyphenyl)-2-methoxyethyl]-1a,6b-dihydro-1H-cyclopropa[b][1]benzofuran-1-carboxamide]	1000	500 to 5000
CCOc1ccc([C@H](COC)NC(=O)C2C3Oc4cccc(Br)c4C32)cc1 (stereo partly drawn) [Example B19, exo-6-bromo-N-[(1R)-1-(4-ethoxyphenyl)-2-methoxyethyl]-1a,6b-dihydro-1H-cyclopropa[b][1]benzofuran-1-carboxamide]	72	≤ 100
O=C(N[C@H]1COCc2ccc(F)cc21)C1C2Oc3ccc(F)cc3C21 (stereo partly drawn) [Example C1, exo-5-fluoro-N-[(4R)-6-fluoro-3,4-dihydro-1H-2-benzopyran-4-yl]-1a,6b-dihydro-1H-cyclopropa[b][1]benzofuran-1-carboxamide]	4800	500 to 5000
O=C(N[C@@H](CO)C1CCCCC1)C1C2Sc3ccccc3C21 (stereo partly drawn) [Example C2, exo-N-[(1R)-1-cyclohexyl-2-hydroxyethyl]-1a,6b-dihydro-1H-cyclopropa[b][1]benzothiophene-1-carboxamide]	2300	500 to 5000
CCOc1ccc(C2(NC(=O)C3C4Oc5ccc(F)cc5C43)CCC2)cn1 (stereo not drawn) [Example C3, exo-N-[1-(6-ethoxypyridin-3-yl)cyclobutyl]-5-fluoro-1a,6b-dihydro-1H-cyclopropa[b][1]benzofuran-1-carboxamide]	5600	5000 to 50000
COc1cc2c(cc1OC)[C@@H](NC(=O)C1C3Oc4ccc(F)cc4C31)COC2 (stereo partly drawn) [Example C4, exo-N-[(4R)-6,7-dimethoxy-3,4-dihydro-1H-2-benzopyran-4-yl]-5-fluoro-1a,6b-dihydro-11H-cyclopropa[b][1]benzofuran-1-carboxamide]		5000 to 50000
CCOc1ccc([C@@H](NC(=O)C2C3Oc4ccc(F)cc4C32)C(F)F)cn1 (stereo partly drawn) [Example C5, exo-N-[(1R)-1-(6-ethoxypyridin-3-yl)-2,2-difluoroethyl]-5-fluoro-1a,6b-dihydro-1H-cyclopropa[b][1]benzofuran-1-carboxamide]	1400	500 to 5000
O=C(N[C@H]1CCOc2cc(F)ccc21)C1C2Oc3ccc(F)cc3C21 (stereo partly drawn) [Example C6, exo-5-fluoro-N-[(4S)-7-fluoro-3,4-dihydro-2H-1-benzopyran-4-yl]-1a,6b-dihydro-1H-cyclopropa[b][1]benzofuran-1-carboxamide]	860	500 to 5000
O=C(N[C@H]1CCOc2cc(F)c(F)cc21)C1C2Oc3ccc(F)cc3C21 (stereo partly drawn) [Example C7, exo-N-[(4S)-6,7-difluoro-3,4-dihydro-2H-1-benzopyran-4-yl]-5-fluoro-1a,6b-dihydro-1H-cyclopropa[b][1]benzofuran-1-carboxamide]	1100	500 to 5000
COc1ccc2c(c1)OCC2NC(=O)C1C2Oc3ccc(F)cc3C21 (stereo not drawn) [Example C8, exo-5-fluoro-N-(6-methoxy-2,3-dihydro-1-benzofuran-3-yl)-1a,6b-dihydro-1H-cyclopropa[b][1]benzofuran-1-carboxamide]	810	500 to 5000
CCOc1ccc([C@@H](NC(=O)C2C3Oc4ccc(F)cc4C32)C(F)F)cn1 (stereo partly drawn) [Example C9, exo-N-[(1R)-1-(6-ethoxypyridin-3-yl)-2,2-difluoroethyl]-5-fluoro-1a,6b-dihydro-1H-cyclopropa[b][1]benzofuran-1-carboxamide]	1100	500 to 5000
O=C(NCCc1ccccc1)C1C2Oc3ccc(F)cc3C21 (stereo not drawn) [Example C11, exo-5-fluoro-N-(2-phenylethyl)-1a,6b-dihydro-1H-cyclopropa[b][1]benzofuran-1-carboxamide]	2200	500 to 5000
CC(NC(=O)C1C2Oc3ccc(F)cc3C21)c1cccs1 (stereo not drawn) [Example C12, exo-5-fluoro-N-[1-(thiophen-2-yl)ethyl]-1a,6b-dihydro-1H-cyclopropa[b][1]benzofuran-1-carboxamide]	1200	500 to 5000
O=C(NCc1cc(Cl)ccc1F)C1C2Oc3ccc(F)cc3C21 (stereo not drawn) [Example C14, exo-N-[(5-chloro-2-fluorophenyl)methyl]-5-fluoro-1a,6b-dihydro-1H-cyclopropa[b][1]benzofuran-1-carboxamide]	810	500 to 5000
O=C(NCc1ccc(Cl)c(F)c1)C1C2Oc3ccc(F)cc3C21 (stereo not drawn) [Example C15, exo-N-[(4-chloro-3-fluorophenyl)methyl]-5-fluoro-1a,6b-dihydro-1H-cyclopropa[b][1]benzofuran-1-carboxamide]	5600	5000 to 50000
CCC(NC(=O)C1C2Oc3ccc(F)cc3C21)c1ccccn1 (stereo not drawn) [Example C16, 2-{1-[(exo-5-fluoro-1a,6b-dihydro-1H-cyclopropa[b][1]benzofuran-1-carbonyl)amino]propyl}pyridine]		500 to 5000
